# What was measured:
# ADAM10 = molecular target: T1, ADAM10 (Homo sapiens, UniProt O14672); assay: IC50 of GI254023X (assay not given)
# T1 sequence (O14672 214-748): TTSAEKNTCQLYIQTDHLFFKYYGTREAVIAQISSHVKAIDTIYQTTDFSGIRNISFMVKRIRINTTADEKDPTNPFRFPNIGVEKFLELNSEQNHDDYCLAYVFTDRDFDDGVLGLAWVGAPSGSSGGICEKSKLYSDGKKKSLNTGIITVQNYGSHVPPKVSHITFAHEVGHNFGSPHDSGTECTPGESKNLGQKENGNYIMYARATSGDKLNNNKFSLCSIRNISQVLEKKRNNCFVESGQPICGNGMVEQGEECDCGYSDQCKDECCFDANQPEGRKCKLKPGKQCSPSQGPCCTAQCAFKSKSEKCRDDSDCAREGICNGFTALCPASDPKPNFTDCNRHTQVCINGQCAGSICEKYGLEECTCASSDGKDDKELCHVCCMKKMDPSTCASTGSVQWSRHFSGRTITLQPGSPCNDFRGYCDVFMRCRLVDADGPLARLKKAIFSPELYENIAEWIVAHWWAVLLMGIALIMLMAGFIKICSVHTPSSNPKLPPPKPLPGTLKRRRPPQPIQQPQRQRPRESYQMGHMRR
# A549 cells = type: cell-based
# [1] = system: Hla-mediated cytotoxicity; conditions: cited from earlier work
structure (smiles),measurement,setting,value
"CNC(=O)[C@@H](NC(=O)[C@H](CCCc1ccccc1)[C@H](C)N(O)C=O)C(C)(C)C [GI254023X, (R)—N—((S)-3,3-dimethyl-1-(methylamino)-1-oxobutan-2-yl)-2-((S)-1-(N-hydroxyformamido)-ethyl)-5-phenylpentanamide]",IC50,ADAM10,~5 µM
same,inhibition of binding of radiolabelled Hla to A549 cells,A549 cells,inhibition of binding of radiolabelled Hla to A549 cells
same,effect on Hla-mediated cytotoxicity,[1],prevents Hla-mediated cytotoxicity
